Data on one substance can be found in patent US7935525B2, “Inhibition of ATF2 activity to treat cancer” (Mount Sinai School of Medicine, priority 2001, dated 2011).

The test system of one test is Fas. As to the kind of experiment: Cell surface expression of Fas by FACS. The settings on record: peptide-expressing LU1205; control 122. Type of test: cell-based, human. As for the experimental part:
Treatment and apoptosis studies of stably transfected melanoma cells. Cells were exposed to UVC at 75 J/m^2 as previously described (Ronai, Z., et al., Oncogene 1998; 16:523-531). SB203580 (1-10 μM) (Calbiochem®, San Diego, Calif.), NCS (50-100 ng/ml) and mitomycin C (MMC) (0.2-1 μM) were used to treat melanoma cells. Flow cytometric analysis was performed on a FACSCalibur™ flow cytometer (Becton Dickinson) using CellQuest™ software as described previously (Nicoletti et al., J. Immunol. Methods 1991; 139:271-279). Cells were pelleted and resuspended in 0.5 ml of hypotonic buffer with 0.1% Triton X-100 containing PI (40 μg/ml) and DNase-free RNase A (1 mg/ml). Cells were incubated at 37° C. for 30 min and analyzed on a FACSCalibur™ flow cytometer (Becton Dickinson). The percentage of cells to the left of the diploid G0/1 peak, characteristic of hypodiploid cells that have lost DNA, was defined as the percentage of apoptotic cells. Analysis was performed with light scatter gating. Surface expression of Fas was determined using anti-Fas-PE antibody (PharMingen® CA) and flow cytometric analysis. Cell surface expression is measured as mean fluorescence intensity (MFI).

Another test relates to SW1 melanoma tumors. The test can be described thus: Growth and metastasis of SW1 tumors constitutively expressing peptide, C3H mice. Type of test: in vivo. As for the experimental part:
Tumor growth and metastasis evaluation in vivo. Cell lines established in culture to constitutively or inducibly express the peptide were injected into mice subcutaneously (S.C.). LU1205, FEMX and SW-1 cells that expressed control or peptide II were trypsinized, resuspended in PBS and injected SC (1×10^6) into 6-7 week old mice in the lower flank. When the tumor reached the size of about 50 mm^3, 5 μM of SB203580 was injected into four areas of the LU1205 tumors every 4 days during a 2-week period. For FEMX tumors UCN-01 (2.5 mg/kg) was fed by gavage twice a day, three times per week for a total of 2 weeks. Tumor growth was monitored every two days. SW-1 cells expressing peptide II under tet-inducible vector were injected SC (1×10^6). When tumors reached a size of about 50 mm^3, the mice received doxycycline in their drinking water ([…]) for a total of 2-4 weeks. At the end of the experiment, the tumors were excised and weighed. The lungs and other organs were subjected to histopathological examination to detect metastatic lesions.

Another test relates to AP1 complex. The test can be described thus: Transcriptional activity mediated from AP1 target sequences. Type of test: cell-based. The settings on record: peptide-expressing melanoma cells.
Test [1] concerns TRE-based promoter (c-Jun/AP1). As to the kind of experiment: TRE-Luc reporter in c-Jun wild-type fibroblasts. It counts as cell-based. The method, then: [Worded in the source for another cell line; this cell line is reported under the same test.] Transient transfection and transcriptional analysis. Mouse melanoma tumors grown in culture were transfected with control vector or peptide II expressing luciferase or β-galactosidase constructs (Bhoumik et al., Clin. Cancer Res. 2001; 7(2):331-42). Transient transfection of different reporter constructs (0.5 cg) with expression vectors and pCMV-Cgal (0.25 Cg) into 5×10^5 melanoma cells was performed using Lipofectamine™ (Life Technologies-BRL). Transfection of the Jun2-luciferase construct permitted us to monitor activity of ATF2 and c-Jun. Jun2-Luc and TRE-Luc constructs were previously described (van Dam H., et al., EMBO J. 1993; 12:479-487; and van Dam H., et al., EMBO J. 1995; 14:1798-1811). Luciferase activity was determined using the Luciferase assay system (Promega®, Madison, Wis.) and normalized on the basis of β-galactosidase (β-Gal) levels in transfected cells. Proteins were prepared for β-Gal and Luciferase analysis at the selected time points after transfection.

A further test deals with SW1 cells. The test can be described thus: Thymidine incorporation (DNA synthesis). Type of test: cell-based, mouse. Particulars: peptide-expressing vs control cells. On the technique in general: Incorporation of labelled thymidine or its analogues reports DNA synthesis.

No end group written: not given here.

Turning to “peptide II: N-terminal polypeptide fragment of ATF2, amino acid residues 50-100, expressed from pcDNA3 with HA-penetratin tag (EMTLKFGPARNDSVIVADQTPTPTRFLKNCEEVGLFNELASPFENEFKKAS; also: HA-penetratin tag, position not given here; UniProt P15336 50-100, looked up, fragment)”, in the test on Fas, the “cell surface expression of Fas, mean fluorescence intensity” value came out at 186. In addition, the tumor size in the test with SW1 melanoma tumors (3-week period, control parent tumor 1800 mm^3) was 100 mm^3; in the test on SW1 melanoma tumors (SC injection, analyzed three weeks later) it was “very small tumors”. In the test on SW1 melanoma tumors (at 72 days), the average tumor size result is “about 1200 mm^3”. Also, the “time for which tumor growth was completely blocked” value with SW1 melanoma tumors (constitutive expression) is on record as “up to 35 days”. Besides, in the test on SW1 melanoma tumors (excised SW1 tumors), the “apoptosis in tumors (tunnel assay)” value is “substantially higher level of apoptosis”. For the same substance, the metastasis result with SW1 melanoma tumors (monitored up to 72 days) is given as “no metastasis was seen”. In addition, in the test on AP1 complex, the “transcriptional activities mediated by AP1 target sequences” value is on record as “lower”. The “increase in the activities of TRE-Luc” value in test [1] is recorded as 200 fold. Also, the “reduction in DNA synthesis level” value with SW1 cells worked out at 50%.
